As usually defined, the inhibition is the drop in the measured response relative to a control, in per cent. The term Ki denotes a measure of affinity in units of concentration, obtained from inhibition or displacement.

The first test deals with T1, β-secretase (BACE) (Homo sapiens, UniProt P56817).
T1 construct: purchased Panvera
T1 sequence (P56817 46-501): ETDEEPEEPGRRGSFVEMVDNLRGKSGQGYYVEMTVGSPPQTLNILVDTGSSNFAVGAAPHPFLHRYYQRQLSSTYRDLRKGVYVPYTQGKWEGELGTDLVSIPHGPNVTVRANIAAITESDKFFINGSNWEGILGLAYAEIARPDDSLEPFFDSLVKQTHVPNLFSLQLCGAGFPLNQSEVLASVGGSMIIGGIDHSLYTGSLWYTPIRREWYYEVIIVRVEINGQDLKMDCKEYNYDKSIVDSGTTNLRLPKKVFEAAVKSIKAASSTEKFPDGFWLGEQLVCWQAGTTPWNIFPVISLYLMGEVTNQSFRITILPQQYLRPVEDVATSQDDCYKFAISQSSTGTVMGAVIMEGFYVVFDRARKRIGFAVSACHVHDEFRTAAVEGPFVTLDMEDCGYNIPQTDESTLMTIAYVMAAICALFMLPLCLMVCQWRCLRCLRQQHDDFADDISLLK
In words: In Vitro BACE FS1 % Inhibition Assay (Example 15). The format is biochemical. Particulars: 0.3 μM compound; FS1 substrate. As for the experimental part:
(§1) The following reagents were used in this assay: sodium acetate, PEG8000 (Sigma), DMSO, HEPES, FS1 substrate [R(AedensE)[…]-(DabcylK)R], β-secretase (BACE) (Panvera), and 96-well plate (HE microplate, Molecular Devices).
(§2) The following assay buffers were prepared and used in this assay: (1) enzyme assay buffer (0.05 M sodium acetate, pH5, 0.1% PEG8000 (w/v)), (2) substrate assay buffer (0.05 M sodium acetate, pH5), and (3) compound vehicle (30% DMSO in 50 mM HEPES, pH 7.4).
(§3) The FS1-substrate stock solution was prepared in DMSO as a 10 mg/mL solution. The FS1-substrate working solution was prepared by diluting the 10 mg/mL stock solution with substrate assay buffer to a final concentration of 300 μg/mL. The β-secretase (BACE) working solution was prepared by diluting a 0.83 mg/mL BACE stock solution with enzyme assay buffer to a final concentration of 4 μg/mL.
Test compounds were dissolved in DMSO to 10 mM. Compounds were further diluted in vehicle to various concentrations in the range of 405 μM to 4.05 μM (13.5× final compound concentration in screening plate).
The screening procedure for this assay was as follows: 15 μL of BACE working solution was pipetted into each well of a 96-well plate. To each well was then pipetted 2 μL of test compound at the selected concentration. Test compound and BACE were then mixed with a pipettor and incubated for 20 min at room temperature. To each well was then added 10 μL of the FS1 substrate working solution. The plates were then incubated for 1 hour at room temperature. The fluorescence for each well was then measured on an LJL analyst (Ex 360 nm/Em 530 nm).
The procedure for the blank (negative control) was as follows. 15 μL of assay buffer was pipetted into each well to be used as a blank control. To each well was then added 2 μL of vehicle and 10 μL of FS1-substrate working solution. The plates were then incubated for 1 hour at room temperature. The fluorescence was measured on an LJL analyst (Ex 360 nm/Em 530 nm).
The procedure for the positive control was as follows: 15 μL of BACE working solution was pipetted into each well to be used as a positive control. To each well was then pipetted 2 μL of vehicle. Vehicle and BACE were then mixed with a pipettor and incubated for 20 min at room temperature. To each well was then added 10 μL of the FS1 substrate working solution. The plates were then incubated for 1 hour at room temperature. The fluorescence (Fl) was then measured on an LJL analyst (Ex 360 nm/Em 530 nm).
For test compounds, % inhibition was determined at each concentration as follows:
% Inhibition values of less than 30% were indistinguishable from control and are listed as ≦30% in the Table below. % Inhibition values greater than 100% were indistinguishable from 100% within the error of the measurement.
In the case of `Nc1nc2ccc(Oc3ccccc3)cc2cc1CCC(=O)NC1C2CC3CC(C2)CC1C3` (stereo not drawn) [compound 2], the inhibition at 0.3 µM is 45%.
Still for that read-out and setting: in the case of `Nc1nc2ccc(Oc3ccccc3)cc2cc1C(CCC(=O)NC1C2CC3CC(C2)CC1C3)C1CCCCC1` (stereo not drawn) [compound 15] it was 43%.
Still for that read-out and setting: the result for `Nc1nc2ccc(Oc3ccccc3)cc2cc1C(CCC(=O)NC1C2CC3CC(C2)CC1C3)C1CCOCC1` (stereo not drawn) [compound 24] reads 56%.

The same test, now with this note: 1 μM compound; FS1 substrate.
Take `Nc1nc2ccc(Oc3ccccc3)cc2cc1CCC(=O)NC1C2CC3CC(C2)CC1C3` (stereo not drawn) [compound 2]: the inhibition at 1 µM was determined as 78%.
Still for that read-out and setting: in the case of `Nc1nc2ccc(Oc3ccccc3)cc2cc1C(CCC(=O)NC1C2CC3CC(C2)CC1C3)C1CCCCC1` (stereo not drawn) [compound 15] it was 58%; in that of `Nc1nc2ccc(Oc3ccccc3)cc2cc1C(CCC(=O)NC1C2CC3CC(C2)CC1C3)C1CCOCC1` (stereo not drawn) [compound 24], 103%.

The same test, now with this note: 3 μM compound; FS1 substrate.
Take `Nc1nc2ccc(Oc3ccccc3)cc2cc1CCC(=O)NC1C2CC3CC(C2)CC1C3` (stereo not drawn) [compound 2]: the inhibition at 3 µM was 107%.
For `Nc1nc2ccc(Oc3ccccc3)cc2cc1C(CCC(=O)NC1C2CC3CC(C2)CC1C3)C1CCCCC1` (stereo not drawn) [compound 15], the inhibition at 3 µM was found to be 78%.
The same measure, in the same setting: the result for `Nc1nc2ccc(Oc3ccccc3)cc2cc1C(CCC(=O)NC1C2CC3CC(C2)CC1C3)C1CCOCC1` (stereo not drawn) [compound 24] reads 132%.

The next test concerns the target T1, β-secretase (BACE). In words: In Vitro BACE Assay, Ki (Example 16). To be noted: FS1 substrate, pH5. It is filed as biochemical. As for the experimental part: as §1, §2, §3
Test compounds were dissolved in DMSO at 10 mM.
The procedure for this assay was as follows: 15 μL of BACE working solution was pipetted into each well of a 96-well plate. To each well was then pipetted 2 μL of test compound at the selected concentration. Test compound and BACE were then mixed with a pipettor and incubated for 20 min at room temperature. […] The fluorescence for each well was then measured on a Polarstar fluorometer (Ex 390 nm/Em 520 nm) for 20 min at room temperature, reading fluorescence at 1 min intervals.
The procedure for the positive control was as follows: 15 μL of BACE working solution was pipetted into each well to be used as a positive control. […] The fluorescence was then measured on a Polarstar fluorometer (Ex 390 nm/Em 520 nm) for 20 min at room temperature, reading fluorescence at 1 min intervals.
For test compounds, Ki inhibition was determined as follows: For each compound concentration and positive control, rate of cleavage of substrate (Vi, where i=compound concentration in μM) was determined as Δ Fluorescence/Δ time (min). […] The Ki was then determined by fitting the following equation to the graph of [I] vs Vi Y=aVmax/(50+24*(1+X/Ki)),
For `Nc1nc2ccc(Oc3ccccc3)cc2cc1CCC(=O)NC1C2CC3CC(C2)CC1C3` (stereo not drawn) [compound 2], the affinity, expressed as Ki, was 230 nM.
The same measure, in the same setting: the result for `Nc1nc2ccc(Oc3ccccc3)cc2cc1C(CCC(=O)NC1C2CC3CC(C2)CC1C3)C1CCCCC1` (stereo not drawn) [compound 15] reads 280 nM; that for `Nc1nc2ccc(Oc3ccccc3)cc2cc1C(CCC(=O)NC1C2CC3CC(C2)CC1C3)C1CCOCC1` (stereo not drawn) [compound 24], 66 nM.

The record behind these values is patent publication US7868022B2, “2-amino-quinoline derivatives useful as inhibitors of β-secretase (BACE)” (Janssen Pharmaceutica NV, priority 2006, dated 2011).
